# Assay results reported in patent publication US20180105863A1, “NEURAL STEM CELL THERAPY FOR OBESITY AND DIABETES” (ALBERT EINSTEIN COLLEGE OF MEDICINE, INC., priority 2012, published 2018).
# System: hypothalamic Notch signaling
# Assay: Daily third-ventricle injection of DLL4 in obese mice implanted with DNIκBα-hNSC
# Type: in vivo
# Experimental: In vivo implantation of hNSC with Notch inhibition counteracts obesity-T2D: Hypothalamic hNSC implantation was performed to investigate whether Notch inhibition could mimic IKKβ/NF-κB inhibition in counteracting obesity and related metabolic disorders. This investigation was also rationalized by the data showing that Notch signaling was robust (indicated by the active form of Notch 1 protein) in Sox2-positie cells of HFD-fed mice but not chow-fed mice (FIG. 7E). In the experiment, C57BL/6 mice received mediobasal hypothalamic injections of GFP-hNSC which carried Notch 1-4 shRNAs vs. control shRNA, and were then maintained on HFD vs. chow feeding. […] Thus, inhibition of Notch signaling can recapitulate the effect of NF-κB inhibition in the NSC implantation with respect to counteraction against HFD-induced obesity and metabolic disorders. Finally, hNSC implantation was employed to assess the IKKβ/NF-κB-Notch connection which was established in vitro. […] Therefore, NSC implantation can, at least, primarily employ neurogenetic program to counteract against metabolic disease, although other associated factors (such as inflammatory changes) probably also participate primarily or secondarily.
substance,measurement,setting,value
"DLL4: Notch protein ligand DLL4, injected daily into the third ventricle",DNIκBα-hNSC induced neurogenesis,data not shown,reversal of ^DNIκBα-hNSC induced neurogenesis
same,hypothalamic inflammation,data not shown,not an induction of hypothalamic inflammation
same,anti-obesity effect of DNIκBα-hNSC implantation,mice already obese via chronic HFD feeding,significantly abolished the anti-obesity effect
